Source: ChEMBL document CHEMBL1152855, “Regioselective synthesis of dispiro[1H-indene-2,3'-pyrrolidine-2',3''-[3H]indole]-1,2''(1''H)-diones of potential anti-tumor properties” (2009)

Columns and labels:
EKVX = experiment: Growth inhibition of human EKVX cells at 10 uM after 48 hrs by sulforhodamine B assay; format: functional; details: values are per cent of control
HOP-62 = experiment: Growth inhibition of human HOP62 cells at 10 uM after 48 hrs by sulforhodamine B assay; format: functional; details: HOP-62, 48 h, values are per cent of control
HOP-92 = experiment: Growth inhibition of human HOP92 cells at 10 uM after 48 hrs by sulforhodamine B assay; format: functional; details: HOP-92, 48 h, read-out: GI
NCI-H226 = experiment: Growth inhibition of human NCI-H226 cells at 10 uM after 48 hrs by sulforhodamine B assay; format: functional; details: NCI-H226, 48 h, values are per cent of control
NCI-H460 = experiment: Growth inhibition of human NCI-H460 cells at 10 uM after 48 hrs by sulforhodamine B assay; format: functional; details: NCI-H460, 48 h, values are per cent of control
NCI-H522 = experiment: Growth inhibition of human NCI-H522 cells at 10 uM after 48 hrs by sulforhodamine B assay; format: functional; details: NCI-H522, 48 h, values are per cent of control
HCT-116 = experiment: Growth inhibition of human HCT116 cells at 10 uM after 48 hrs by sulforhodamine B assay; format: functional; details: HCT-116, 48 h, values are per cent of control
KM12 = experiment: Growth inhibition of human KM12 cells at 10 uM after 48 hrs by sulforhodamine B assay; format: functional; details: KM12, 48 h, values are per cent of control
SW-620 = experiment: Growth inhibition of human SW620 cells at 10 uM after 48 hrs by sulforhodamine B assay; format: functional; details: SW-620, 48 h, values are per cent of control
[1] = Growth inhibition of human Hs 578T cells at 10 uM after 48 hrs by sulforhodamine B assay; format: functional; details: values are per cent of control
MCF7 = experiment: Growth inhibition of human MCF7 cells at 10 uM after 48 hrs by sulforhodamine B assay; format: functional; details: MCF7, 48 h, values are per cent of control
MDA-MB-231 = experiment: Growth inhibition of human MDA-MB-231 cells at 10 uM after 48 hrs by sulforhodamine B assay; format: functional; details: MDA-MB-231, 48 h, values are per cent of control
NCI/ADR-RES = experiment: Growth inhibition of human NCI/ADR-RES cells at 10 uM after 48 hrs by sulforhodamine B assay; format: functional; details: values are per cent of control
T47D = experiment: Growth inhibition of human T47D cells at 10 uM after 48 hrs by sulforhodamine B assay; format: functional; details: values are per cent of control
OVCAR-4 = experiment: Growth inhibition of human OVCAR4 cells at 10 uM after 48 hrs by sulforhodamine B assay; format: functional; details: OVCAR-4, 48 h, values are per cent of control
OVCAR-5 = experiment: Growth inhibition of human OVCAR5 cells at 10 uM after 48 hrs by sulforhodamine B assay; format: functional; details: OVCAR-5, 48 h, values are per cent of control
SK-OV-3 = experiment: Growth inhibition of human SKOV3 cells at 10 uM after 48 hrs by sulforhodamine B assay; format: functional; details: SK-OV-3, 48 h, values are per cent of control
MOLT-4 = experiment: Growth inhibition of human MOLT4 cells at 10 uM after 48 hrs by sulforhodamine B assay; format: functional; details: MOLT-4, 48 h, values are per cent of control
RPMI-8226 = experiment: Growth inhibition of human RPMI8226 cells at 10 uM after 48 hrs by sulforhodamine B assay; format: functional; details: RPMI-8226, 48 h, read-out: GI
SR = experiment: Growth inhibition of human SR cells at 10 uM after 48 hrs by sulforhodamine B assay; format: functional; details: values are per cent of control
A498 = experiment: Growth inhibition of human A498 cells at 10 uM after 48 hrs by sulforhodamine B assay; format: functional; details: A498, 48 h, values are per cent of control
CAKI-1 = experiment: Growth inhibition of human Caki1 cells at 10 uM after 48 hrs by sulforhodamine B assay; format: functional; details: CAKI-1, 48 h, values are per cent of control
SN12C = experiment: Growth inhibition of human SN12C cells at 10 uM after 48 hrs by sulforhodamine B assay; format: functional; details: values are per cent of control
Rattus norvegicus [2] = experiment: Antiinflammatory activity against carrageenan-induced paw edema in Wister albino rat assessed as inhibition of edema at 50 mg/kg, ip administered 1 hr prior to carrageenan challenge measured after 4 hrs relative to control; format: functional; details: route intraperitoneal
Rattus norvegicus [3] = experiment: Antiinflammatory activity against carrageenan-induced paw edema in Wister albino rat assessed as inhibition of edema at 50 mg/kg, ip administered 1 hr prior to carrageenan challenge measured after 4 hrs relative to indomethacin; format: functional; details: route intraperitoneal
UO-31 = experiment: Growth inhibition of human UO31 cells at 10 uM after 48 hrs by sulforhodamine B assay; format: functional; details: UO-31, 48 h, values are per cent of control
LOX IMVI = experiment: Growth inhibition of human LOXIMVI cells at 10 uM after 48 hrs by sulforhodamine B assay; format: functional; details: values are per cent of control
SK-MEL-2 = experiment: Growth inhibition of human SK-MEL-2 cells at 10 uM after 48 hrs by sulforhodamine B assay; format: functional; details: SK-MEL-2, 48 h, read-out: GI
SK-MEL-28 = experiment: Growth inhibition of human SK-MEL-28 cells at 10 uM after 48 hrs by sulforhodamine B assay; format: functional; details: SK-MEL-28, 48 h, values are per cent of control
UACC-62 = experiment: Growth inhibition of human UACC62 cells at 10 uM after 48 hrs by sulforhodamine B assay; format: functional; details: UACC-62, 48 h, values are per cent of control
DU-145 = experiment: Growth inhibition of human DU145 cells at 10 uM after 48 hrs by sulforhodamine B assay; format: functional; details: DU-145, 48 h, values are per cent of control
PC-3 = experiment: Growth inhibition of human PC3 cells at 10 uM after 48 hrs by sulforhodamine B assay; format: functional; details: PC-3, 48 h, values are per cent of control
SF-268 = experiment: Growth inhibition of human SF268 cells at 10 uM after 48 hrs by sulforhodamine B assay; format: functional; details: SF-268, 48 h, values are per cent of control
SF-295 = experiment: Growth inhibition of human SF295 cells at 10 uM after 48 hrs by sulforhodamine B assay; format: functional; details: SF-295, 48 h, values are per cent of control
SF-539 = experiment: Growth inhibition of human SF539 cells at 10 uM after 48 hrs by sulforhodamine B assay; format: functional; details: SF-539, 48 h, values are per cent of control
SNB-75 = experiment: Growth inhibition of human SNB75 cells at 10 uM after 48 hrs by sulforhodamine B assay; format: functional; details: SNB-75, 48 h, values are per cent of control
U-251 = experiment: Growth inhibition of human U251 cells at 10 uM after 48 hrs by sulforhodamine B assay; format: functional; details: U-251, 48 h, values are per cent of control
Rattus norvegicus [4] = experiment: Antiinflammatory activity against carrageenan-induced paw edema in Wister albino rat assessed as inhibition of edema at 50 mg/kg, ip administered 1 hr prior to carrageenan challenge measured after 3 hrs relative to control; format: functional; details: route intraperitoneal
TK-10 = experiment: Growth inhibition of human TK10 cells at 10 uM after 48 hrs by sulforhodamine B assay; values are per cent of control; details: TK-10, 48 h

SMILES	growth, % of control at 10 µM (EKVX)	growth, % of control at 10 µM (HOP-62)	inhibition of growth at 10 µM (HOP-92)	growth, % of control at 10 µM (NCI-H226)	growth, % of control at 10 µM (NCI-H460)	growth, % of control at 10 µM (NCI-H522)	growth, % of control at 10 µM (HCT-116)	growth, % of control at 10 µM (KM12)	growth, % of control at 10 µM (SW-620)	growth, % of control at 10 µM [1]	growth, % of control at 10 µM (MCF7)	growth, % of control at 10 µM (MDA-MB-231)	growth, % of control at 10 µM (NCI/ADR-RES)	growth, % of control at 10 µM (T47D)	growth, % of control at 10 µM (OVCAR-4)	growth, % of control at 10 µM (OVCAR-5)	growth, % of control at 10 µM (SK-OV-3)	growth, % of control at 10 µM (MOLT-4)	inhibition of growth at 10 µM (RPMI-8226)	growth, % of control at 10 µM (SR)	also measured
[3H]N1C(=O)[C@@]2(c3ccccc31)N(C)C[C@@H](c1cccs1)[C@@]21Cc2ccccc2C1=O	97.5%	110%	72.9%	96.2%	109%	92.3%	92.2%	94.3%	89.5%	69.8%	109%	78.3%	97.4%	96%	93%	98.8%	96.2%	67.7%	89.1%	60.3%	growth, % of control at 10 µM (A498): 102%; growth, % of control at 10 µM (CAKI-1): 106%; growth, % of control at 10 µM (SN12C): 99.6%; inhibition in vivo at 50 mg/kg (Rattus norvegicus [2]): 20%; activity relative to indomethacin (Rattus norvegicus [3]): 41%; growth, % of control at 10 µM (UO-31): 95.8%; growth, % of control at 10 µM (LOX IMVI): 80%; inhibition of growth at 10 µM (SK-MEL-2): 6.58%; growth, % of control at 10 µM (SK-MEL-28): 117%; growth, % of control at 10 µM (UACC-62): 82%; growth, % of control at 10 µM (DU-145): 92%; growth, % of control at 10 µM (PC-3): 73%; growth, % of control at 10 µM (SF-268): 93.6%; growth, % of control at 10 µM (SF-295): 105%; growth, % of control at 10 µM (SF-539): 109%; growth, % of control at 10 µM (SNB-75): 81%; growth, % of control at 10 µM (U-251): 100%; inhibition in vivo at 50 mg/kg (Rattus norvegicus [4]): 32.6%; growth, % of control at 10 µM (TK-10): 144%
[3H]C([3H])([3H])N1C(=O)[C@@]2(c3ccccc31)N(C)C[C@@H](c1ccc(Cl)cc1)[C@@]21Cc2ccccc2C1=O	72.6%	88.1%	25.1%	63.2%	67.1%	77.3%	24.3%	68.7%	67.8%	55.2%	91.8%	79.3%	79.4%	75.8%	72.5%	95.4%	86.6%	87.5%	13.4%	51.4%	growth, % of control at 10 µM (A498): 82.3%; growth, % of control at 10 µM (CAKI-1): 71.8%; growth, % of control at 10 µM (SN12C): 86.5%; inhibition in vivo at 50 mg/kg (Rattus norvegicus [2]): 8.5%; activity relative to indomethacin (Rattus norvegicus [3]): 18%; growth, % of control at 10 µM (UO-31): 66.1%; growth, % of control at 10 µM (LOX IMVI): 72.2%; inhibition of growth at 10 µM (SK-MEL-2): -11.1%; growth, % of control at 10 µM (SK-MEL-28): 90.6%; growth, % of control at 10 µM (UACC-62): 48.4%; growth, % of control at 10 µM (DU-145): 91.1%; growth, % of control at 10 µM (PC-3): 38.3%; growth, % of control at 10 µM (SF-268): 81.1%; growth, % of control at 10 µM (SF-295): 65%; growth, % of control at 10 µM (SF-539): 90.5%; growth, % of control at 10 µM (SNB-75): 75.3%; growth, % of control at 10 µM (U-251): 93.1%; inhibition in vivo at 50 mg/kg (Rattus norvegicus [4]): 9.4%; growth, % of control at 10 µM (TK-10): 140%
